Reference: paper PMC9817970 (Cancers, 2022)

Columns and labels:
Test in all cases: Kinase panel profiling
Type in all cases: biochemical
Settings in all cases: 10 μM ATP
ABL1 = target: T1, ABL1 (Homo sapiens, UniProt P00519)
T1 construct: purchased Reaction Biology Corp
Method: (§1) Kinase panel profiling was conducted by Reaction Biology Corp. (San Diego, CA, USA). A single dose (1.0 μM) of 6r was tested against 371 recombinant human kinases in the presence of 10 μM ATP.

BMX/ETK = target: T2, BMX/ETK (Homo sapiens, UniProt P51813)
T2 construct: purchased Reaction Biology Corp
Method: as §1

CDK1/cyclin B = target: T3, CDK1/cyclin B (Homo sapiens, UniProt P06493)
T3 construct: purchased Reaction Biology Corp
Method: as §1

CDK14/cyclin Y (PFTK1) = target: T4, CDK14/cyclin Y (PFTK1) (Homo sapiens, UniProt O94921)
T4 construct: purchased Reaction Biology Corp
Method: as §1

CDK16/cyclin Y (PCTAIRE) = target: T5, CDK16/cyclin Y (PCTAIRE) (Homo sapiens, UniProt Q00536)
T5 construct: purchased Reaction Biology Corp
Method: as §1

CDK3/cyclin E = target: T6, CDK3/cyclin E (Homo sapiens, UniProt Q00526)
T6 construct: purchased Reaction Biology Corp
Method: as §1

CDK4/cyclin D3 = target: T7, CDK4/cyclin D3 (Homo sapiens, UniProt P11802)
T7 construct: purchased Reaction Biology Corp
Method: as §1

CDK9/cyclin T2 = target: T8, CDK9/cyclin T2 (Homo sapiens, UniProt P50750)
T8 construct: purchased Reaction Biology Corp
Method: as §1

CK2a = target: T9, CK2a (Homo sapiens, UniProt P68400)
T9 construct: purchased Reaction Biology Corp
Method: as §1

CLK2 = target: T10, CLK2 (Homo sapiens, UniProt P49760)
T10 construct: purchased Reaction Biology Corp
Method: as §1

COT1/MAP3K8 = target: T11, COT1/MAP3K8 (Homo sapiens, UniProt P41279)
T11 construct: purchased Reaction Biology Corp
Method: as §1

DLK/MAP3K12 = target: T12, DLK/MAP3K12 (Homo sapiens, UniProt Q12852)
T12 construct: purchased Reaction Biology Corp
Method: as §1

DYRK1B = target: T13, DYRK1B (Homo sapiens, UniProt Q9Y463)
T13 construct: purchased Reaction Biology Corp
Method: as §1

DYRK2 = target: T14, DYRK2 (Homo sapiens, UniProt Q92630)
T14 construct: purchased Reaction Biology Corp
Method: as §1

EPHA1 = target: T15, EPHA1 (Homo sapiens, UniProt P21709)
T15 construct: purchased Reaction Biology Corp
Method: as §1

EPHA8 = target: T16, EPHA8 (Homo sapiens, UniProt P29322)
T16 construct: purchased Reaction Biology Corp
Method: as §1

ERK2/MAPK1 = target: T17, ERK2/MAPK1 (Homo sapiens, UniProt P28482)
T17 construct: purchased Reaction Biology Corp
Method: as §1

GRK4 = target: T18, GRK4 (Homo sapiens, UniProt P32298)
T18 construct: purchased Reaction Biology Corp
Method: as §1

KSR2 = target: T19, KSR2 (Homo sapiens, UniProt Q6VAB6)
T19 construct: purchased Reaction Biology Corp
Method: as §1

MEK2 = target: T20, MEK2 (Homo sapiens, UniProt P36507)
T20 construct: purchased Reaction Biology Corp
Method: as §1

MEK5 = target: T21, MEK5 (Homo sapiens, UniProt Q13163)
T21 construct: purchased Reaction Biology Corp
Method: as §1

MEKK3 = target: T22, MEKK3 (Homo sapiens, UniProt Q99759)
T22 construct: purchased Reaction Biology Corp
Method: as §1

MINK/MINK1 = target: T23, MINK/MINK1 (Homo sapiens, UniProt Q8N4C8)
T23 construct: purchased Reaction Biology Corp
Method: as §1

MKK4 = target: T24, MKK4 (Homo sapiens, UniProt P45985)
T24 construct: purchased Reaction Biology Corp
Method: as §1

MLCK/MYLK = target: T25, MLCK/MYLK (Homo sapiens, UniProt Q15746)
T25 construct: purchased Reaction Biology Corp
T25 sequence (Q15746 whole entry): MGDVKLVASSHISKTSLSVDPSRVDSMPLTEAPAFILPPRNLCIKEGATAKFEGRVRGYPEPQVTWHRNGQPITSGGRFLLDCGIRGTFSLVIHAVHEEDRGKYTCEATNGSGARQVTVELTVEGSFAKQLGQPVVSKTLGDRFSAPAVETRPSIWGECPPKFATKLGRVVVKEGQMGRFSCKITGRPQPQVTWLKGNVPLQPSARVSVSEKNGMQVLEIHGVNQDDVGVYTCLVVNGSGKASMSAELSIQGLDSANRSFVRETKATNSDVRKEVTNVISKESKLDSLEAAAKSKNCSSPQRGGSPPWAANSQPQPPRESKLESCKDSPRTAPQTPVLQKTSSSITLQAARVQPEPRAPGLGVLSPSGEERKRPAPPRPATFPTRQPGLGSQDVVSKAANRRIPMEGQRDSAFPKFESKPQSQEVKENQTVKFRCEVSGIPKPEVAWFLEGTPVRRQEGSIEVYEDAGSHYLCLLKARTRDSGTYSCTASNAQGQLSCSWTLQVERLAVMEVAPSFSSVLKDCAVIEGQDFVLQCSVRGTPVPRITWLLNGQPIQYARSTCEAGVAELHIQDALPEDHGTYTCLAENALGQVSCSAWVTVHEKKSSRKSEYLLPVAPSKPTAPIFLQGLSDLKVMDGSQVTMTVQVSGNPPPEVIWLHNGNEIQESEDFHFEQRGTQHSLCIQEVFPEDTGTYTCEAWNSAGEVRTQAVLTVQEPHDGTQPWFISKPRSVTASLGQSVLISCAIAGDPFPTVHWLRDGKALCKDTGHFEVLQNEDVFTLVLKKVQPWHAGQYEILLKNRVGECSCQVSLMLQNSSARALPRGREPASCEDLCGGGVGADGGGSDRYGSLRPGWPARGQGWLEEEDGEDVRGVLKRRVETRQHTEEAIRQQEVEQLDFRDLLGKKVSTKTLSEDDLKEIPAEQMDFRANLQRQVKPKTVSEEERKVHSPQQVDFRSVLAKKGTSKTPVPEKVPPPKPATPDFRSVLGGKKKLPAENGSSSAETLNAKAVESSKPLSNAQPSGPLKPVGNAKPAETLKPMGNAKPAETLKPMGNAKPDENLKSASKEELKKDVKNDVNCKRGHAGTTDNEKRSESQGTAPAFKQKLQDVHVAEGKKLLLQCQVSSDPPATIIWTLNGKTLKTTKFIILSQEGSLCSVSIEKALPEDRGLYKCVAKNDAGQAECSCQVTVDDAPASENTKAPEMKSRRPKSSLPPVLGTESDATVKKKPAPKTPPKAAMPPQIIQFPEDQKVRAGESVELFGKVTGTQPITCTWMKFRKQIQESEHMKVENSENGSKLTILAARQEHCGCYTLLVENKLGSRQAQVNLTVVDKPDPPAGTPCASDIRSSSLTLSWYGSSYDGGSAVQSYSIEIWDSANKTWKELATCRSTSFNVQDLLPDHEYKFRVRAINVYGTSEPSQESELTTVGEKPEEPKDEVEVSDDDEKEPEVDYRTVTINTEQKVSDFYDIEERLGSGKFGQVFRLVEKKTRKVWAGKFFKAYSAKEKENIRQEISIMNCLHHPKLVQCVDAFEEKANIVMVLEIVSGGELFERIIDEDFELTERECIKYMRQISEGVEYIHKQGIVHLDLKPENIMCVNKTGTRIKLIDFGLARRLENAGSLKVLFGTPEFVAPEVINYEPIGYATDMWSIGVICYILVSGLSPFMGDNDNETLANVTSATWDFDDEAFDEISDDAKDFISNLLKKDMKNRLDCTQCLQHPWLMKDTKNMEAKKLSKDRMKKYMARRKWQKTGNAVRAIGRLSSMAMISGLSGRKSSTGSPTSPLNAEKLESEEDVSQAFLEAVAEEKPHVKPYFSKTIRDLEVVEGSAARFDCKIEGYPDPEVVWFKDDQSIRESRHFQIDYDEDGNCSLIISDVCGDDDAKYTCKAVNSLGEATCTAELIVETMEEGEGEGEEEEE
Method: as §1

MLK1/MAP3K9 = target: T26, MLK1/MAP3K9 (Homo sapiens, UniProt P80192)
T26 construct: purchased Reaction Biology Corp
T26 sequence (P80192 whole entry): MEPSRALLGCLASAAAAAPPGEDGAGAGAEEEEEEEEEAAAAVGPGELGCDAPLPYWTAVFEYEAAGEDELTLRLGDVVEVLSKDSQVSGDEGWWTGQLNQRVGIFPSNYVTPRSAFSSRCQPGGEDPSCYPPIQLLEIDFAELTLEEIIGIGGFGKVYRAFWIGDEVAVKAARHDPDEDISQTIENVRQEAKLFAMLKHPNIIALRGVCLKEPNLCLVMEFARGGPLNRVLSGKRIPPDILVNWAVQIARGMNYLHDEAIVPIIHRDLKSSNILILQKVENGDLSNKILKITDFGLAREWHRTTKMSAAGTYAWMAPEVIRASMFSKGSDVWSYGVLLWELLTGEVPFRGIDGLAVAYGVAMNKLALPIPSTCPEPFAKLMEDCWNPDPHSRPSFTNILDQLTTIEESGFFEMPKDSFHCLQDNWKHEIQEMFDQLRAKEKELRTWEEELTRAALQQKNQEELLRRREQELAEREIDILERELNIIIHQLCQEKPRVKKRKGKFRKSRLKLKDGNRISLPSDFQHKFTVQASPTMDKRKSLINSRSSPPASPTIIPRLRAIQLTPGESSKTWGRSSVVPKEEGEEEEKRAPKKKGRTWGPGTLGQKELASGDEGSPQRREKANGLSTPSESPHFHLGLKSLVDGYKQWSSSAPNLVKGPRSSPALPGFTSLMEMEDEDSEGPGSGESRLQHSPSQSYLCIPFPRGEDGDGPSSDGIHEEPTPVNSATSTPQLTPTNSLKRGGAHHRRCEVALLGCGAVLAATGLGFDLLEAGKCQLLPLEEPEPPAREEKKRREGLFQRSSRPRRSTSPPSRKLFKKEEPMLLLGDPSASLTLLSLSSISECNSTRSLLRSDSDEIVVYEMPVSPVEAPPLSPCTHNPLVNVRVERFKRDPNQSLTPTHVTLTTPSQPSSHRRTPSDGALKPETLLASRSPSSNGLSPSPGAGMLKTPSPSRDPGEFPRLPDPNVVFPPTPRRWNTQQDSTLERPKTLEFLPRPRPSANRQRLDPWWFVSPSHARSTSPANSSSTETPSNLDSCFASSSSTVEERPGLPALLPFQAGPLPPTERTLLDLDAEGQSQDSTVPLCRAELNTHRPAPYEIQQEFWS
Method: as §1

MRCKb/CDC42BPB = target: T27, MRCKb/CDC42BPB (Homo sapiens, UniProt Q9Y5S2)
T27 construct: purchased Reaction Biology Corp
Method: as §1

MSK2/RPS6KA4 = target: T28, MSK2/RPS6KA4 (Homo sapiens, UniProt O75676)
T28 construct: purchased Reaction Biology Corp
Method: as §1

MST2/STK3 = target: T29, MST2/STK3 (Homo sapiens, UniProt Q13188)
T29 construct: purchased Reaction Biology Corp
T29 sequence (Q13188 whole entry): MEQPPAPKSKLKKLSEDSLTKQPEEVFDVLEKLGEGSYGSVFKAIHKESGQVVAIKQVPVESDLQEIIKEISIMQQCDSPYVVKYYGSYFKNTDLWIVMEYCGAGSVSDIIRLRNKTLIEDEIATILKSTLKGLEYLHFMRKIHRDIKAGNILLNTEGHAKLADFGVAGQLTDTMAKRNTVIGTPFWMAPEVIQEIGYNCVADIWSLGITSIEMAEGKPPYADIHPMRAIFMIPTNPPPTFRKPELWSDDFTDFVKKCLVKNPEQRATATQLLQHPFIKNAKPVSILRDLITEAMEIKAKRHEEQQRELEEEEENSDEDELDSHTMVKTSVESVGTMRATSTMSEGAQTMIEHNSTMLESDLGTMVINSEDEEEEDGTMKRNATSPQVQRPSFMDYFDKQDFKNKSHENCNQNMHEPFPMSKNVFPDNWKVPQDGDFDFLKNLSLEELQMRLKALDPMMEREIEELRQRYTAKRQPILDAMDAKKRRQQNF
Method: as §1

MST4 = target: T30, MST4 (Homo sapiens, UniProt Q9P289)
T30 construct: purchased Reaction Biology Corp
Method: as §1

MYLK3 = target: T31, MYLK3 (Homo sapiens, UniProt Q32MK0)
T31 construct: purchased Reaction Biology Corp
Method: as §1

PAK2 = target: T32, PAK2 (Homo sapiens, UniProt Q13177)
T32 construct: purchased Reaction Biology Corp
Method: as §1

PIM1 = target: T33, PIM1 (Homo sapiens, UniProt P11309)
T33 construct: purchased Reaction Biology Corp
Method: as §1

PKCepsilon = target: T34, PKCepsilon (Homo sapiens, UniProt Q02156)
T34 construct: purchased Reaction Biology Corp
Method: as §1

PKCnu/PRKD3 = target: T35, PKCnu/PRKD3 (Homo sapiens, UniProt O94806)
T35 construct: purchased Reaction Biology Corp
Method: as §1

PRKX = target: T36, PRKX (Homo sapiens, UniProt P51817)
T36 construct: purchased Reaction Biology Corp
Method: as §1

RIPK2 = target: T37, RIPK2 (Homo sapiens, UniProt O43353)
T37 construct: purchased Reaction Biology Corp
T37 sequence (O43353 whole entry): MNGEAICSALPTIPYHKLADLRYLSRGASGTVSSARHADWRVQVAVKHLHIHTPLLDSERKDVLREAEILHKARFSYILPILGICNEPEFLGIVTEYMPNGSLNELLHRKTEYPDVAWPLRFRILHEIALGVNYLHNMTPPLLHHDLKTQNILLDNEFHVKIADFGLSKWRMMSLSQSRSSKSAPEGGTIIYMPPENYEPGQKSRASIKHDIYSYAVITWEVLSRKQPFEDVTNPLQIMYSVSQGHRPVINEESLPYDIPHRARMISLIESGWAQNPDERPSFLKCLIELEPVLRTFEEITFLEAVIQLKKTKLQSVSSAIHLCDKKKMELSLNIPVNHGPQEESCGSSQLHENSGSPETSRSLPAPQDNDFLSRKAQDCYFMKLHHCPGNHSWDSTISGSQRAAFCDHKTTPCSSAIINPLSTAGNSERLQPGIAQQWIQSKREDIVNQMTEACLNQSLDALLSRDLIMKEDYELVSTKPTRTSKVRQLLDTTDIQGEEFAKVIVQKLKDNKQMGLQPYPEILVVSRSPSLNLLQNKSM
Method: as §1

ROCK2 = target: T38, ROCK2 (Homo sapiens, UniProt O75116)
T38 construct: purchased Reaction Biology Corp
Method: as §1

SGK1 = target: T39, SGK1 (Homo sapiens, UniProt O00141)
T39 construct: purchased Reaction Biology Corp
Method: as §1

TAOK3/JIK = target: T40, TAOK3/JIK (Homo sapiens, UniProt Q9H2K8)
T40 construct: purchased Reaction Biology Corp
Method: as §1

ZAP70 = target: T41, ZAP70 (Homo sapiens, UniProt P43403)
T41 construct: purchased Reaction Biology Corp
Method: as §1

c-MER = target: T42, c-MER (Homo sapiens, UniProt Q12866)
T42 construct: purchased Reaction Biology Corp
T42 sequence (Q12866 21-999): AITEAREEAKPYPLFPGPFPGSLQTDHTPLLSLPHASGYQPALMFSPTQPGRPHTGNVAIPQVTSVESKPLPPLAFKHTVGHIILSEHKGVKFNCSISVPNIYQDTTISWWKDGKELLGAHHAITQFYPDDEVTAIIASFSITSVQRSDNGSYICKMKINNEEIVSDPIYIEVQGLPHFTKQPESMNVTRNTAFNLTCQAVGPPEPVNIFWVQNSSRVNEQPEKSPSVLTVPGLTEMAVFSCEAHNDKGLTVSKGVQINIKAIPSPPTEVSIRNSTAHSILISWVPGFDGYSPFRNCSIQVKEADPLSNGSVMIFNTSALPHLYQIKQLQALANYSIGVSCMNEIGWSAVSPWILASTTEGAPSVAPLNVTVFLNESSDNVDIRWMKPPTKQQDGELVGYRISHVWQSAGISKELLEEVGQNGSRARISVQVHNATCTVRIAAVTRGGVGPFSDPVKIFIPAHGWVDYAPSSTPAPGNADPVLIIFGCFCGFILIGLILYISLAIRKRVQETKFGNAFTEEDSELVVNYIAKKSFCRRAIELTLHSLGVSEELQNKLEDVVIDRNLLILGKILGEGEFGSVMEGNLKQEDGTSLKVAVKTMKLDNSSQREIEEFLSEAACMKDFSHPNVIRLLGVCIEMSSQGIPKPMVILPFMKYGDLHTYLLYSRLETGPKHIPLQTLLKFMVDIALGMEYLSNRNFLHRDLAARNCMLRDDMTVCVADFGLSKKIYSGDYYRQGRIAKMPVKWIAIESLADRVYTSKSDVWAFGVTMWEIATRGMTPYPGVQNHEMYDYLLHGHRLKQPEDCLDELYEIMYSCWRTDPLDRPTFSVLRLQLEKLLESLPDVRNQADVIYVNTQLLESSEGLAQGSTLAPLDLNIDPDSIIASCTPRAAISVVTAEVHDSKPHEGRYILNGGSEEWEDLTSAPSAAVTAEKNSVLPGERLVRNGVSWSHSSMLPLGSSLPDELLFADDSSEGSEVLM
Method: as §1

With Cc1ccc(NC(=O)c2ccc(CN3CCN(C)CC3)c(C(F)(F)F)c2)cc1-c1cnc2sc(N)nc2c1 [6r] the inhibition at 1 µM (ABL1) was 60.8%, the inhibition at 1 µM (BMX/ETK) was 31.5% and the inhibition at 1 µM (CDK1/cyclin B) was 0%. The inhibition at 1 µM (CDK14/cyclin Y (PFTK1)) was 0%, the inhibition at 1 µM (CDK16/cyclin Y (PCTAIRE)) was 0.8% and the inhibition at 1 µM (CDK3/cyclin E) was 14.3%. The inhibition at 1 µM (CDK4/cyclin D3) was 9.8%, the inhibition at 1 µM (CDK9/cyclin T2) was 0% and the inhibition at 1 µM (CK2a) was 21.7%. It also gave an inhibition at 1 µM (CLK2) of 38.7%, an inhibition at 1 µM (COT1/MAP3K8) of 9.2% and an inhibition at 1 µM (DLK/MAP3K12) of 0%. The inhibition at 1 µM (DYRK1B) was 26.2%, the inhibition at 1 µM (DYRK2) was 0.6% and the inhibition at 1 µM (EPHA1) was 8.2%. It also gave an inhibition at 1 µM (EPHA8) of 72.3%, an inhibition at 1 µM (ERK2/MAPK1) of 13.5% and an inhibition at 1 µM (GRK4) of 0%. The inhibition at 1 µM (KSR2) was 0%, the inhibition at 1 µM (MEK2) was 7.1% and the inhibition at 1 µM (MEK5) was 6.5%. For the same compound, the inhibition at 1 µM (MEKK3) was 4.9%, the inhibition at 1 µM (MINK/MINK1) was 0% and the inhibition at 1 µM (MKK4) was 6%. For the same compound, the inhibition at 1 µM (MLCK/MYLK) was 11%, the inhibition at 1 µM (MLK1/MAP3K9) was 0% and the inhibition at 1 µM (MRCKb/CDC42BPB) was 2.4%. It also gave an inhibition at 1 µM (MSK2/RPS6KA4) of 17.1%, an inhibition at 1 µM (MST2/STK3) of 0% and an inhibition at 1 µM (MST4) of 15.7%. The inhibition at 1 µM (MYLK3) was 0%, the inhibition at 1 µM (PAK2) was 5.4% and the inhibition at 1 µM (PIM1) was 13.6%. The inhibition at 1 µM (PKCepsilon) was 0%, the inhibition at 1 µM (PKCnu/PRKD3) was 23.8% and the inhibition at 1 µM (PRKX) was 12.8%. The inhibition at 1 µM (RIPK2) was 20.6%, the inhibition at 1 µM (ROCK2) was 0.6% and the inhibition at 1 µM (SGK1) was 11.6%. For the same compound, the inhibition at 1 µM (TAOK3/JIK) was 17.8%, the inhibition at 1 µM (ZAP70) was 8.7% and the inhibition at 1 µM (c-MER) was 6.1%.
